Laboratory results reported in patent publication US20230312564A1, “AROMATIC RING-LACTAM COMPOUND, PREPARATION METHOD THEREFOR AND USE THEREOF” (SHANGHAI RINGENE BIOPHARMA CO., LTD., priority 2020, published 2023).
pIC50: −log10 of the molar value. Like-named read-outs stand apart in the source and are kept apart here.

Experiments:
ERK1/2 kinase = system: T1, ERK1/2 kinase; assay: ERK1/2 kinase (Carna) inhibitory activity, Caliper mobility shift; format: biochemical; conditions: for pIC50: read-out: ERK½ IC50
T1 construct: fused on or other part: Carna's ERK products carry a GST tag by vendor knowledge
Method in brief: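 Compounds tested from 10 μM top concentration, 3-fold dilutions to 10 points, in duplicate, in 1× kinase buffer; Caliper mobility-shift readout.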

Colo-205 cells = assay: Colo-205 tumor cell proliferation, CCK-8, 72 hours; format: cell-based; conditions: for pIC50: 72 hours, CCK-8, read-out: Colo-205 IC50; for cell proliferation inhibitory activity (in words): Colo-205
[1] = Liver microsomal metabolic stability, rat; format: in vitro ADME; conditions: 0.5 mg/mL microsomes, 1 μM compound, NADPH
Procedure: (§1) The reaction was stopped with tinidazole-containing acetonitrile at 0 min, 5 min, 10 min and 30 min, respectively. After vortexing for 10 min and centrifuging at 15,000 rmp for 10 min, 50 μL of the supernatant was injected into a 96-well plate. The metabolic stability of the compound was calculated by determining the relative reduction of the drug, calculated as half-life T1/2.

[2] = Liver microsomal metabolic stability, dog; format: in vitro ADME; conditions: 0.5 mg/mL microsomes, 1 μM compound, NADPH
Procedure: as §1

[3] = Liver microsomal metabolic stability, human; format: in vitro ADME; conditions: 0.5 mg/mL microsomes, 1 μM compound, NADPH
Procedure: as §1

[4] = Liver microsomal metabolic stability, mouse; format: in vitro ADME; conditions: 0.5 mg/mL microsomes, 1 μM compound, NADPH
Procedure: as §1

[5] = Liver microsomal stability, comparisons in words across species; format: in vitro ADME; conditions: for stability of different kinds of liver microsomes (in words): different species, versus the comparative compounds
Procedure: as §1

CYP1A2 = molecular target: T2, CYP1A2 (Homo sapiens, UniProt P05177); assay: Direct inhibition test (DI test) in human liver microsomes, CYP1A2
T2 sequence (P05177 1-516): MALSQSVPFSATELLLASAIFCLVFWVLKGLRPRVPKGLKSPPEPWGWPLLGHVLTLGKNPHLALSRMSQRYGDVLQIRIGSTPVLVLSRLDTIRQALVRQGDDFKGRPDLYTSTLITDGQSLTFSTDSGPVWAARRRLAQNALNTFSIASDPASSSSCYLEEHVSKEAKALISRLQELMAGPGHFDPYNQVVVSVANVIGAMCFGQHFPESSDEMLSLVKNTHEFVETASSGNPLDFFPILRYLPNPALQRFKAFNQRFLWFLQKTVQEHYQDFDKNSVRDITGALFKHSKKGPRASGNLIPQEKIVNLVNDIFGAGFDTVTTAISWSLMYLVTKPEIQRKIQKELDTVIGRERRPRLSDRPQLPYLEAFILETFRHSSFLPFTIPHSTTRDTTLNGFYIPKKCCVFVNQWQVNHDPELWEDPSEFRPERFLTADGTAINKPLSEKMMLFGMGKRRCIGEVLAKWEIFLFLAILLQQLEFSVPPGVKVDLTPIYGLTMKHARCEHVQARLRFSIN
Procedure: (§2) (2) Direct inhibition test (DI test): A system containing 100 μL of human liver microsomes (final concentration of 0.2 mg/mL) was subjected to a direct inhibition incubation, and the system contained NADPH (final concentration of 1 mM), 10 μM compound, positive inhibitor cocktail (10 μM ketoconazole, 10 μM quinidine, 100 μM sulfaphenazole, 10 μM α-naphthoflavone, 1,000 μM tranylcypromine), negative control (BPS of 0.1% DMSO), and mixed probe substrates (10 μM midazolam, 100 μM testosterone, 10 μM dextromethorphan, […], 100 μM phenacetin, 100 μM mephenytoin). After 20 minutes of incubation, the reaction was stopped. The relative activity of the enzyme was calculated by measuring the relative production of metabolites.

[6] = system: Colo-205 transplanted tumor; assay: Growth inhibition of nude mice Colo-205 transplanted tumor; format: in vivo; conditions: for effect on the tumor weight (in words) / tumor growth of Colo-205 transplanted tumor nude mice (in words): dose of 50 mg/kg or 25 mg/kg
Procedure: The tumor tissue in the vigorous growth phase was cut into about 1.5 mm^3 and inoculated subcutaneously in the right axilla of nude mice under sterile conditions. The diameter of subcutaneous transplanted tumors in nude mice was measured with a vernier caliper, and the mice were randomly divided into groups when the average tumor volume reached about 130 mm^3. The embodiment compounds (injection water containing 1% Tween 80 were configured to a desired concentration for later use) were orally administered daily at a given dose for three consecutive weeks, and the solvent control group was administered with the same amount of solvent. During the whole test, the diameter of transplanted tumor was measured twice a week, and the mice were weighed at the same time. The calculation formula of tumor volume (TV) is expressed as TV=1/2×a×b^2, wherein a and b represent length and width, respectively. The relative tumor volume (RTV) was calculated according to the measurement results, and the calculation formula is RTV=Vt/V0, wherein V0 is the tumor volume measured when administered in separate cages (i.e., d0), and Vt is the tumor volume at the time of each measurement.

[7] = In-vivo pharmacokinetic parameters in mice; parameters: species or system Balb-c mice
Procedure: (§3) Six male SPF grade SD rats or Balb-c mice (Shanghai Sipple-Bikai Laboratory Animal) were divided into two groups, and the tested compounds were prepared into appropriate solutions or suspensions; one group was administered intravenously (with a dose of 1 mg/kg), and the other group was administered orally (with a dose of 5 mg/kg). Blood samples were collected by jugular vein puncture, and each sample was collected with a volume of about 0.2 mL/time point, and heparin sodium was used for anticoagulation. The time points of blood collection were listed below: 5, 15 and 30 min […], 1, 2, 4, 6, 8 and 24 h after administration; the collected blood samples were placed on ice and centrifuged to separate plasma (centrifugation conditions: 8,000 rpm, 6 min, 2 to 8° C.), and the collected plasma was stored at −80° C. before analysis. Plasma samples were analyzed by LC-MS/MS.
(§4) The pharmacokinetic parameters such as AUC0-t, AUC0-∞, MRT0-∞, Cmax, Tmax, T1/2 and Vd of the tested compounds and their mean values and standard deviations were calculated by the pharmacokinetic calculation software WinNonlin5.2 non-compartmental model according to the plasma concentration data. In addition, the bioavailability (F) was calculated by the following formula.
(§5) For samples with concentrations below the lower limit of quantitation, while pharmacokinetic parameter calculations were performed, samples sampled before Cmax was reached should be calculated as a zero value and samples sampled after Cmax was reached should be calculated as below limit of quantitation (BLQ).

[8] = In-vivo pharmacokinetic parameters in SD rats
Procedure: as §3, §4, §5

CYP2C8 = CYP2C8 (Homo sapiens, UniProt P11712); assay: Direct inhibition test (DI test) in human liver microsomes, CYP2C8; format: in vitro ADME
CYP2C19 = molecular target: T3, CYP2C19 (Homo sapiens, UniProt P33261); assay: Direct inhibition test (DI test) in human liver microsomes, CYP2C19; format: in vitro ADME
T3 construct: A system containing 100 μL of human liver microsomes; from tissue; host or cells: human liver microsomes
Procedure: as §2

CYP3A4 = molecular target: T4, CYP3A4 (Homo sapiens, UniProt P08684); assay: Direct inhibition test (DI test) in human liver microsomes, CYP3A4; format: in vitro ADME
T4 construct: A system containing 100 μL of human liver microsomes; from tissue; host or cells: human liver microsomes
Procedure: as §2

CYP2D6 = molecular target: T5, CYP2D6 (Homo sapiens, UniProt P10635); assay: Direct inhibition test (DI test) in human liver microsomes, CYP2D6; format: in vitro ADME
T5 construct: A system containing 100 μL of human liver microsomes; from tissue; host or cells: human liver microsomes
Procedure: as §2

[9] = male, Balb-c, mouse, plasma, IV, 1 mg/kg
[10] = male, Balb-c, mouse, plasma, PO, 5 mg/kg
[11] = male, rat, plasma, 1 mg/kg, IV, 1 mpk
[12] = male, rat, plasma, 5 mg/kg, PO, 5 mpk
[13] = Homo sapiens, COLO 205, numeric values

T4 sequence (P08684 whole entry): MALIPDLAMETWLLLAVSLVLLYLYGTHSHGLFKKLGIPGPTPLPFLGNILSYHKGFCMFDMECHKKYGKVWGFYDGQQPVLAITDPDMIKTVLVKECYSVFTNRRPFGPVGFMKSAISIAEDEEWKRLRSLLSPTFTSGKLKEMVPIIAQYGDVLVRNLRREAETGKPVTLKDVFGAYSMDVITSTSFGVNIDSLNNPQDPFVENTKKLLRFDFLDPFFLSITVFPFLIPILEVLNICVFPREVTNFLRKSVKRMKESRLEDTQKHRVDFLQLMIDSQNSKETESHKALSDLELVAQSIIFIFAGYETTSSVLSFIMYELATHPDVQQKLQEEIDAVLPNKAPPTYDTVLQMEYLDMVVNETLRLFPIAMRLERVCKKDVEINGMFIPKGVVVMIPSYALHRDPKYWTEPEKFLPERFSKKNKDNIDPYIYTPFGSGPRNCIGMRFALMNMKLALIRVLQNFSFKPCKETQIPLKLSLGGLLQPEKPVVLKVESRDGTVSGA
T3 sequence (P33261 whole entry): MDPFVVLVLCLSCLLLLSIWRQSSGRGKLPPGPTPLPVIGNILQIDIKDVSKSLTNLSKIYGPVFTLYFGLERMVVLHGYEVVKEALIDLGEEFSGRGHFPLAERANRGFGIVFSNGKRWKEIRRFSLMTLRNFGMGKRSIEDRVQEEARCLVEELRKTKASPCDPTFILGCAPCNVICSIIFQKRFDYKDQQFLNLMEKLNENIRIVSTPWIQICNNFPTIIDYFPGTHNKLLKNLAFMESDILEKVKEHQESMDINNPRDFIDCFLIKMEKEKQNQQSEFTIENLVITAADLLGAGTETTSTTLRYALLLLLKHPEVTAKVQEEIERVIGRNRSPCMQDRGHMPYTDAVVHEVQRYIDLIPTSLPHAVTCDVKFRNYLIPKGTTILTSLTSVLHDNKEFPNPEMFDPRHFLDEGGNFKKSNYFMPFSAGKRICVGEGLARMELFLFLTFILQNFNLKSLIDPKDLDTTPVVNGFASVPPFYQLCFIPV
Chain of CYP2C8 (P11712 whole entry): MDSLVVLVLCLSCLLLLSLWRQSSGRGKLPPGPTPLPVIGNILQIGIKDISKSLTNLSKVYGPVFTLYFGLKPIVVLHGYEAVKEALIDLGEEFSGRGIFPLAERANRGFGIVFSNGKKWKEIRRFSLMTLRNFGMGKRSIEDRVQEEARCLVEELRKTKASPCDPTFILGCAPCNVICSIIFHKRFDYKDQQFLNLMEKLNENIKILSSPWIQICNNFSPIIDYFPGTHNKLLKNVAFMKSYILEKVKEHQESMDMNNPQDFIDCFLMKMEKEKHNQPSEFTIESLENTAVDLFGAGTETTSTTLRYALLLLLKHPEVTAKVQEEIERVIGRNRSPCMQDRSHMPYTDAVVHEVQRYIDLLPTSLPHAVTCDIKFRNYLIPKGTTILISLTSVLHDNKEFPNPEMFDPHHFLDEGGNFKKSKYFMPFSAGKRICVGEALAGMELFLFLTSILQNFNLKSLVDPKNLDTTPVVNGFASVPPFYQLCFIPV
T5 sequence (P10635 whole entry): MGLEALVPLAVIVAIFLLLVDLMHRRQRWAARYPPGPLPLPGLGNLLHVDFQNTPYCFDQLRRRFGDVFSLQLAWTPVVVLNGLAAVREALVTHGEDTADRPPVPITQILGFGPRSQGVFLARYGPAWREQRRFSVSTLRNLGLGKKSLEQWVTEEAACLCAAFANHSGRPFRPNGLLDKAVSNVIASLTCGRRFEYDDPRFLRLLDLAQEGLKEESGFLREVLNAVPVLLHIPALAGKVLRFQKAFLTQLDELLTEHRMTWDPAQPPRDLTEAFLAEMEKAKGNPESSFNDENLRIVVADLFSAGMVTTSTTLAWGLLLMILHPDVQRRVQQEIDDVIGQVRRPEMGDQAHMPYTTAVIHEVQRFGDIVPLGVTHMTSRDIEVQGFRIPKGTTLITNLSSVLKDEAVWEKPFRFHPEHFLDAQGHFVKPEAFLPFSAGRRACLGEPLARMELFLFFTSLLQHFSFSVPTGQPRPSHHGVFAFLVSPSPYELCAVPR

Cc1cccc([C@@H](CO)NC(=O)[C@@H](C)N2Cc3ccc(-c4nc(NC5CCOCC5)ncc4F)c(F)c3C2=O)c1 [Embodiment 31]
enzyme inhibitory activity (in words) (ERK1/2 kinase): extremely strong enzyme inhibitory activity
pIC50 (ERK1/2 kinase; numeric values): 9.05
pIC50 (Colo-205 cells; numeric values): 7.76
cell proliferation inhibitory activity (in words) (Colo-205 cells): strong cell proliferation inhibitory activity
Liver microsomal stability T1/2 [1]: 17 min
Liver microsomal stability T1/2 [2]: 122 min
Liver microsomal stability T1/2 [3]: 13 min
Liver microsomal stability T1/2 [4]: 17 min
stability of different kinds of liver microsomes (in words) [5]: significant advantages
pIC50 (CYP1A2; microsomes): < 5.00
effect on the tumor weight (in words) [6]: no significant effect on the tumor weight
tumor growth of Colo-205 transplanted tumor nude mice (in words) [6]: significantly inhibited the tumor growth

COc1cc(F)cc([C@@H](CO)NC(=O)[C@@H](C)N2Cc3ccc(-c4nc(NC5CCOCC5)ncc4Cl)c(F)c3C2=O)c1 [Embodiment 33]
enzyme inhibitory activity (in words) (ERK1/2 kinase): extremely strong enzyme inhibitory activity
pIC50 (ERK1/2 kinase; numeric values): 9.05
pIC50 (Colo-205 cells; numeric values): 7.85
cell proliferation inhibitory activity (in words) (Colo-205 cells): strong cell proliferation inhibitory activity
Liver microsomal stability T1/2 [1]: 17 min
Liver microsomal stability T1/2 [2]: 51 min
Liver microsomal stability T1/2 [3]: 18 min
Liver microsomal stability T1/2 [4]: 10 min
stability in liver microsomes (in words) ([5]; mouse, rat and human, compared with comparative compound 5): significantly improved
pIC50 (CYP1A2; microsomes): < 5.00

C[C@H](C(=O)N[C@H](CO)c1cccc(Cl)c1)N1Cc2ccc(-c3nc(NC4CCOCC4)ncc3F)c(F)c2C1=O [Embodiment 37]
pIC50 (ERK1/2 kinase; numeric values): > 9.00
pIC50 (Colo-205 cells; numeric values): 8.36
cell proliferation inhibitory activity (in words) (Colo-205 cells): strong cell proliferation inhibitory activity
Liver microsomal stability T1/2 [1]: 14 min
Liver microsomal stability T1/2 [2]: 27 min
Liver microsomal stability T1/2 [3]: 11 min
Liver microsomal stability T1/2 [4]: 12 min
stability of different kinds of liver microsomes (in words) [5]: significant advantages
F ([7]; PO 5 mg/kg vs IV 1 mg/kg): 54%
AUC(0-inf) [7, 9]: 0.586 µM·h
AUC(0-t) [7, 9]: 0.583 µM·h
MRT inf [7, 9]: 18 min
clearance [7, 9]: 50 mL/min/kg
half-life [7, 9]: 48 min
Vd ([7]; male, Balb-c, mouse, plasma, IV, 1 mg/kg, read-out: Vss): 0.9 L/kg
AUC(0-inf) [7, 10]: 1.58 µM·h
AUC(0-t) [7, 10]: 1.57 µM·h
Cmax [7, 10]: 1680 nM
Tmax [7, 10]: 18 min
half-life [7, 10]: 66 min
F ([8]; PO 5 mpk vs IV 1 mpk): 17%
AUC(0-inf) [8, 11]: 0.538 µM·h
AUC(0-t) [8, 11]: 0.536 µM·h
MRT inf [8, 11]: 18 min
clearance [8, 11]: 54 mL/min/kg
half-life [8, 11]: 48 min
Vd ([8]; male, rat, plasma, 1 mg/kg, IV, 1 mpk, read-out: Vss): 0.8 L/kg
AUC(0-inf) [8, 12]: 0.452 µM·h
AUC(0-t) [8, 12]: 0.446 µM·h
Cmax [8, 12]: 396 nM
Tmax [8, 12]: 18 min
half-life [8, 12]: 66 min
T/C ([6]; 50 mg/kg, qdx21, po): 28.3%
Initial weight (D0) ([6]; 50 mg/kg, qdx21, po, D0): 23.3 g
Terminal weight (D21) ([6]; 50 mg/kg, qdx21, po, D21): 24.5 g
Initial tumor volume ([6]; 50 mg/kg, qdx21, po, initial): 95 ± 19 mm^3
Terminal tumor volume ([6]; 50 mg/kg, qdx21, po, terminal): 285 ± 137 mm^3
effect on the tumor weight (in words) [6]: no significant effect on the tumor weight
tumor growth of Colo-205 transplanted tumor nude mice (in words) [6]: significantly inhibited the tumor growth

COc1cc(F)cc([C@@H](CO)NC(=O)[C@@H](C)N2Cc3ccc(-c4nc(NC5CCOC5)ncc4F)c(F)c3C2=O)c1 (stereo partly drawn) [Embodiment 42]
pIC50 (ERK1/2 kinase; numeric values): > 9.00
cell proliferation inhibitory activity (in words) (Colo-205 cells): strong cell proliferation inhibitory activity
pIC50 (Colo-205 cells; Homo sapiens, COLO 205, class symbols): > 7.00
pIC50 (CYP1A2): < 5.00
IC50 at 20 min (CYP2C8): > 10000 nM
pIC50 (CYP2C19): < 5.00
pIC50 (CYP3A4): < 5.00
pIC50 (CYP2D6): < 5.00

COc1cc(F)cc([C@@H](CO)NC(=O)[C@@H](C)N2Cc3ccc(-c4nc(NC5CCC(F)(F)CC5)ncc4F)c(F)c3C2=O)c1 [Embodiment 44]
pIC50 (ERK1/2 kinase; class symbols): > 8.00
cell proliferation inhibitory activity (in words) (Colo-205 cells): strong cell proliferation inhibitory activity
pIC50 (Colo-205 cells; [13]): 7.74
pIC50 (CYP1A2): < 5.00
IC50 at 20 min (CYP2C8): > 10000 nM
pIC50 (CYP2C19): < 5.00
pIC50 (CYP3A4): < 5.00
pIC50 (CYP2D6): < 5.00

C[C@H](C(=O)N[C@H](CO)c1cccc(F)c1)N1Cc2ccc(-c3nc(NC4CCOCC4)ncc3F)c(F)c2C1=O [Embodiment 46]
pIC50 (ERK1/2 kinase; numeric values): > 9.00
pIC50 (Colo-205 cells; [13]): 7.79
pIC50 (CYP1A2): < 5.00
IC50 at 20 min (CYP2C8): > 10000 nM
pIC50 (CYP2C19): < 5.00
pIC50 (CYP3A4): < 5.00
pIC50 (CYP2D6): < 5.00
